According to patent US6245757A, “Use of progestins to treat ischemic event” (priority 1998, dated 2001):

Key:
[1] = tested on: stroke patients; conditions: cited from earlier work
[2] = tested on: central nervous system (CNS); conditions: cited from earlier work
[3] = tested on: GABA receptor; conditions: physiological levels of PROG, in vivo; cited from earlier work
[4] = tested on: middle cerebral artery occlusion (MCAO) rats; assay: Infarct volume after MCAO (TTC staining), Example 1; type: in vivo, Male Wistar rats; conditions: for % Infarct volume (to the contralateral hemisphere): 48 h post MCAO, n=12, mean ± S.E.M., DMSO group 35.1 ± 4.5; for decrease of percent infarct volume compared with DMSO treated control group: 4.0 mg/kg i.p.
[5] = tested on: middle cerebral artery occlusion rats; conditions: one hour prior to MCAO; early stages of ischemia; cited from earlier work
[6] = tested on: GABA receptor; conditions: neurons; cited from earlier work
[7] = tested on: middle cerebral artery occlusion (MCAO) rats; assay: Neurological deficit score after MCAO (Zea Longa scale 0-4), Example 1; conditions: for Neurologic Score: scale 0-4, mean ± S.E.M., DMSO group 1.8 ± 0.1
Procedure: (§1) Briefly, the right common carotid artery, external carotid artery (ECA) and internal carotid artery (ICA) were exposed. A length of 4-0 monofilament nylon suture (18.5-19.5 mm), determined by the animal weight, with its tip rounded by heating near a flame, was advanced from the ECA into the lumen of the ICA until it blocked the origin of the MCA. Two hours after MCAO, animals were reanaesthetized with halothane and reperfusion was performed by withdrawal of the suture until the tip cleared the lumen of the ICA.
(§2) Four randomly assigned populations of animals were tested. Group 1 (n=12): water soluble PROG (PROG with balance of 2-hydroxypropyl-β-cyclodextrin) (Sigma Chemical Co., St Louis, Mo.) dissolved in saline (4.0 mg/ml) was injected intraperitoneally (4.0 mg/kg) 30 minutes before MCAO. The remaining injections (all 4.0 mg/kg) were given at 6 and 24 hours after MCAO, respectively. Group 2 (n =12): the experimental protocol was identical to that in Group 1, except that PROG (4-pregnene-3,20-dione) (Sigma Chemical Co., St Louis, Mo.) dissolved in dimethyl sulfoxide (DMSO; Sigma Chemical Co., St Louis, Mo.) (8.0 mg/ml), instead of water soluble PROG, was administered. Group 3 (n=12): the experimental protocol was identical to that in group 2, except that the initial injection was delayed to the onset of reperfusion (2 hours after MCAO). Group 4 (n=12): the experimental protocol was the same as that in Group 2, except that the same volume of DMSO without PROG (0.5 ml/kg) as in Group 2 was administered.
(§3) All animals were weighed before surgery for MCAO and at 24 and 48 hours after MCAO. Neurological abnormalities were also evaluated 24 and 48 hours after MCAO using the scale (0-4) described by Z. Longa et al., Stroke, 20, 84 (1989). Rats were held gently by the tail, suspended one meter above the floor, and observed for forelimb flexion. […] Rats that consistently flexed the left forelimb (contralateral to the injured hemisphere) accompanying flexion of the wrist toward left without any other abnormality were graded 1. Rats that were allowed to move about freely and circled toward the paretic side consistently were graded 2. Rats that fell down to the left losing the ability to walk were graded 3.
(§4) For parametric variables, a one way ANOVA was applied to determine the statistical significance of differences among groups. If a significant difference was detected, then two sample t-tests with Bonferroni correction were performed to evaluate differences between control and PROG treated groups. Paired t-tests were performed on physiological parameters before and after administration of PROG and DMSO within each group. Values presented in this study are mean ±S.E.M. A probability value less than 0.05 was considered significant.

[8] = circulating PROG; cited from earlier work
[9] = Body weight loss after MCAO, Example 1; conditions: for Body weight loss: mean ± S.E.M.
Procedure: as §1, §2, §3, §4

[10] = Physiological variables (blood pH, pCO2, pO2, blood pressure) before and after injection, rat MCAO; type: in vivo, Male Wistar rats; conditions: for Mean Blood Pressure / pCO2 / pH / pO2: n=12, mean ± S.E.M.
[11] = in vivo; conditions: rat, ip, 4 mg/kg, plasma level of PROG
[12] = tested on: cerebral contusion; conditions: one hour after the cerebral trauma; cited from earlier work
[13] = tested on: global cerebral ischemia; conditions: 7-day pretreatment; cited from earlier work
[14] = both groups of regular PROG treated animals (pre- and post-MCAO), 4.0 mg/kg i.p.
[15] = 20 min post-injection, 4.0 mg/kg i.p. 30 min before MCAO
[16] = 20 min post-injection, 4.0 mg/kg i.p. 2 h after MCAO
[17] = pre-injection, group 4.0 mg/kg i.p. 30 min before MCAO
[18] = pre-injection, group 4.0 mg/kg i.p. 2 h after MCAO

Compound: C[C@H]1C[C@@H]2[C@H]([C@@H](O)C[C@@]3(C)[C@H]2CC[C@]3(O)C(=O)CO)[C@@]2(C)C=CC(=O)C=C12 [methylprednisolone]
- outcome, steroid vs non-steroid treated patients [1]: no significant difference in outcome

Compound: C[C@@H]1C[C@H]2[C@@H]3CCC4=CC(=O)C=C[C@]4(C)[C@@]3(F)[C@@H](O)C[C@]2(C)[C@@]1(O)C(=O)CO [dexamethasone]
- outcome, steroid vs non-steroid treated patients [1]: no significant difference in outcome

Compound: CC(=O)[C@H]1CC[C@H]2[C@@H]3CCC4=CC(=O)CC[C@]4(C)[C@H]3CC[C@]12C [PROG, 4-pregnene-3,20-dione]
- CNS actions ([2]; PROG and its related metabolites): CNS depressants and exert anesthetic, anticonvulsant and anxiolytic actions
- anticonvulsant activity ([2]; in vivo): possesses anticonvulsant activity
- GABA-mediated inhibition of neuronal activity [3]: enhance GABA-mediated inhibition of neuronal activity
- % Infarct volume (to the contralateral hemisphere) ([4]; 4.0 mg/kg i.p. 30 min before, 6 and 24 h after MCAO): 21.5 ± 2.9%
- % Infarct volume (to the contralateral hemisphere) ([4]; 4.0 mg/kg i.p. first dose 2 h after MCAO): 23.1 ± 2.3%
- decrease of percent infarct volume compared with DMSO treated control group ([4]; delayed treated (2 h after MCAO), P=0.027): 34%
- decrease of percent infarct volume compared with DMSO treated control group ([4]; first dose 30 min before MCAO, DMSO dissolved PROG P=0.018, water soluble PROG P=0.290 (not significant)): 39%
- effectiveness 2 hours after onset of MCAO versus prior to onset ([4]; 2 h after onset vs prior to onset of MCAO): as effective
- brain edema [5]: reduce brain edema in the early stages of ischemia
- GABA-evoked Cl currents [6]: potentiating GABA-evoked Cl currents
- absorption by the intraperitoneal route (4.0 mg/kg i.p., DMSO dissolved, n=2): absorbed rapidly
- plasma level of PROG (rat, in vivo, ip, 4 mg/kg, 4 h): 70.7 ng/mL
- Neurologic Score ([7]; 24 h after MCAO, 4.0 mg/kg i.p. first dose 30 min before MCAO): 1.4 ± 0.1 score
- Neurologic Score ([7]; 24 h after MCAO, 4.0 mg/kg i.p. first dose 2 h after MCAO): 1.4 ± 0.1 score
- Neurologic Score ([7]; 48 h after MCAO, 4.0 mg/kg i.p. first dose 30 min before MCAO): 1.4 ± 0.1 score
- Neurologic Score ([7]; 48 h after MCAO, 4.0 mg/kg i.p. first dose 2 h after MCAO): 1.4 ± 0.1 score
- neurological function compared with DMSO group [7, 14]: improved neurological function
- passage through the blood-brain barrier [8]: easily passes through the blood-brain barrier
- Body weight loss ([9]; 24 h after MCAO, 4.0 mg/kg i.p. first dose 30 min before MCAO, DMSO group 40.4 ± 3.4): 31.1 ± 2.6 grams
- Body weight loss ([9]; 24 h after MCAO, 4.0 mg/kg i.p. first dose 2 h after MCAO, DMSO group 40.4 ± 3.4): 33.8 ± 1.9 grams
- Body weight loss ([9]; 48 h after MCAO, 4.0 mg/kg i.p. first dose 30 min before MCAO, DMSO group 19.7 ± 2.9): 8.8 ± 2.2 grams
- Body weight loss ([9]; 48 h after MCAO, 4.0 mg/kg i.p. first dose 2 h after MCAO, DMSO group 19.7 ± 2.9): 10.0 ± 3.1 grams
- body weight loss compared with DMSO group [9, 14]: reduced body weight loss
- Mean Blood Pressure [10, 15]: 95 ± 2 mm Hg
- pCO2 [10, 15]: 39 ± 2 mm Hg
- pH [10, 15]: 7.43 ± 0.02
- pO2 [10, 15]: 135 ± 5 mm Hg
- Mean Blood Pressure [10, 16]: 103 ± 3 mm Hg
- pCO2 [10, 16]: 36 ± 1 mm Hg
- pH [10, 16]: 7.44 ± 0.01
- pO2 [10, 16]: 134 ± 3 mm Hg
- physiological variables before and after injection ([10]; before vs 20 min after initial treatment, 4.0 mg/kg i.p.): no significant difference
- Mean Blood Pressure [10, 17]: 94 ± 3 mm Hg
- pCO2 [10, 17]: 41 ± 1 mm Hg
- pH [10, 17]: 7.44 ± 0.01
- pO2 [10, 17]: 134 ± 4 mm Hg
- Mean Blood Pressure [10, 18]: 107 ± 3 mm Hg
- pCO2 [10, 18]: 36 ± 1 mm Hg
- pH [10, 18]: 7.46 ± 0
- pO2 [10, 18]: 133 ± 4 mm Hg
- concentration at 4 h [11]: 41.9 ng/mL
- edema resulting from cerebral contusion [12]: reduced edema
- neuroprotective activity following global cerebral ischemia [13]: exhibited neuroprotective activity following global cerebral ischemia only after a 7-day pretreatment regimen
